Data set [1] can be described thus: Aqueous stability of dimers in buffered pH solutions (TLC, LCMS/HPLC UV). The format is physicochemical. Particulars: r.t.; for remaining at 168 h, 5 mg/mL: bicarbonate buffer pH 12.5 / acetonitrile (1:1), pH 12.5 (bicarbonate) buffer, 50% MeCN: buffer, 5 mg/mL dimer, after 7 days, from HPLC UV traces. On the procedure: Human serum pH is tightly regulated around 7.4, with intracellular pH controlled between pH 6.0–7.2, and gastric pH between 1.4–3.5.[37] […] Given the prevalence of ester linkages in pro-drug structures[38] and the facile hydrolysis of esters in aqueous media, the stability of our scaffold was a concern. We therefore investigated the stability of dimers 25 and 29 over extended periods of time in aqueous solution from pH2.5–12.5. To monitor dimer stability over time, 10 mM pH buffer solutions of: 2.5(acetate), 5.0(acetate), 7.4 (phosphate-buffered saline), 10.0 (bicarbonate), and 12.5 (bicarbonate) were selected, to obtain a pH range similar to those present within the human body. Since both dimers are insoluble in water, they were firstly dissolved in acetonitrile, before addition to the buffered solutions to form a 5 mg/mL dimer solution (50% MeCN: buffer). Degradation was monitored via TLC over time, and the final solution composition was determined by LCMS after 7 days (Fig 3 and Figure S3).
Fig. 3 Dimers 25 and 29 were incubated for 7 days in a range of buffered pH solutions and % dimer remaining measured by integration of UV peaks from an HPLC Diode array trace.
To pre-prepared 100 mM pH buffer solutions (1.00 mL), including pH 2.5, 5.0, 7.4, 10.0 and 12.5 (Table 2), was added the dimer (10 mg/mL in MeCN) at r.t, forming a final solution with dimer concentration 5 mg/mL. The mixture was stirred at r.t. for 7 days and monitored via TLC and LCMS (50% MeCN) to follow ester bond degradation.

The structures appear in SMILES notation.

With `COC(=O)c1ccc(OC(=O)c2ccc(O)c(OC)c2)c(OC)c1` [Compound 29, 2-methyoxy-4-(methoxycarbonyl)phenyl 4-hydroxy-3-methoxybenzoate], the fraction remaining (commonly the share of the starting amount still present when the sample was taken) at 168 h, 5 mg/mL in data set [1] came to 49%.

In data set [1], `C=CCOc1ccc(C(=O)Oc2ccc(C(=O)OC)cc2OC(C)C)cc1OC(C)C` [Compound 25, 2-isopropoxy-4-(methoxycarbonyl)phenyl 4-(allyloxy)-3-isopropoxybenzoate] showed a share remaining at 168 h, 5 mg/mL of 6%. Further, in data set [1] (pH 12.5, 50% MeCN: buffer), the “time before ester hydrolysis occurs” value is on record as greater than 5 days.

For the compound `C=CCOc1ccc(C(=O)OC)cc1O` [Compound 1, Methyl 4-(allyloxy)-3-hydroxybenzoate], the melting point (as a rule, the temperature, or range, at which the solid turns liquid) was 67 to 68 °C.
